Laboratory results reported in publication PMC7593906, “Synthesis and HPLC-ECD Study of Cytostatic Condensed O,N-Heterocycles Obtained from 3-Aminoflavanones” (Biomolecules, 2020).

Legend:
WM35 melanoma cell line = assay: MTT assay, viability of WM35 cells; assay type: cell-based, human; settings: for antiproliferative activity at 50 μM concentration: WM35, 50 μM, monitored at 24 and 72 h (Figure S263); for IC50: MTT assay, cells treated daily for 3 days; for EC20 (logistic fit) / EC80 (logistic fit): WM35, MTT dose-response fit, treated daily for 3 days, SI figures
Procedure: (§1) The number of viable cells was indirectly determined by measuring the conversion of the tetrazolium salt MTT (3-{4,5-dimethilthiasol-2-il}-2,5-diphenyltetrasolium bromide, Sigma-Aldrich) to formazan by mitochondrial dehydrogenases. Cells were plated in 96-well multi-titer plates (10,000 cells per well density) in quadruplicates and were cultured for 3 days and treated by the compounds daily. Negative control group was treated with equal amount of vehicle solvent (DMSO) and positive control group was treated with 1 µg/mL doxorubicin. Cells were then incubated with 5 mg/mL MTT for 3 h, precipitated formazan crystals were dissolved in acidic isopropanol (10% 1 M HCl in isopropanol supplemented with 10% Triton X 100), and concentration of formazan was assessed colorimetrical way measuring absorbance at 565 nm.
(§2) Logistic dose-response curves were fitted using the equation y = A2 + (A1-A2)/(1 + (x/x0)^p) where the parameters are: A1: initial value (ymin), A2: final value (ymax), x0: center (EC/IC50), and p is the calculated power. Fittings were carried out and parameters were calculated using Origin 8.6 (OriginLab Corporation, Northampton, MA, USA).

[1] = system: A2780 ovarian carcinoma cell line; assay: MTT assay, viability of A2780 cells; assay type: cell-based, human; settings: for antiproliferative activity at 50 μM concentration: A2780, 50 μM, monitored at 24 and 72 h (Figure S262); for IC50: MTT assay, cells treated daily for 3 days
Procedure: as §1, §2

[2] = system: non-cancerous HaCaT human keratinocytes; assay: MTT assay, viability of HaCaT keratinocytes; assay type: cell-based; parameters: EC20 (logistic fit) / EC80 (logistic fit): unit not given here; settings: for EC20 (logistic fit) / EC80 (logistic fit): MTT dose-response fit, treated daily for 3 days, SI figures; for IC50: MTT assay, cells treated daily for 3 days
Procedure: as §1, §2

[3] = system: A2780 ovarian carcinoma cells; assay: SYTOX Green labeling, plasma membrane integrity; assay type: cell-based; settings: A2780, 24 hrs incubation
Text: (§3) 2.13. MitoProbe^TM DilC1(5) Assay and SYTOX Green Labeling
(§4) Decrease in mitochondrial membrane potential is an early hallmark of apoptosis and the disruption of the plasma membrane integrity is characteristic for cellular necrosis. These events were investigated simultaneously using MitoProbe^TM DilC1(5) assay kit and SYTOX green (both from Molecular Probes/ThermoiFisher) staining, respectively. DilC1(5) (1,1′,3,3,3′,3′-hexamethylindodicarbo - cyanine iodide) is a fluorescent cyanine dye which penetrates cytoplasm with intact membrane and accumulates primarily in mitochondria depending on the mitochondrial membrane potential. […] SYTOX Green is a nucleic acid stain impermeant to live cells with intact plasma membrane, but it penetrates the compromised membrane of necrotic, dead cells resulting in a bright green fluorescent nuclear staining.
(§5) Cells were plated in 96-well multi-titer plates (10,000 cells per well density) in quadruplicates and were incubated for 24 h with various concentrations of rac-19g. […] Finally, the excess of the dyes was removed, cells were gently washed in PBS, and fluorescence of DilC1(5) and SYTOX Green was measured at 630/680 nm and 490/520 nm (excitation/emission), respectively, using a FlexStation 3 (Molecular Devices) multimodal microplate reader.

[4] = system: A2780 ovarian carcinoma cells; assay: MitoProbe DilC1(5) assay, mitochondrial membrane potential; assay type: cell-based, human; settings: A2780, 24 hrs incubation
Text: as §3, §4, §5

[5] = system: A2780 ovarian carcinoma cells; assay: CyQUANT cell proliferation assay, total DNA content; assay type: cell-based, human; settings: A2780, 24 hrs incubation
Procedure: 2.14. CyQUANT® Cell Proliferation Assay
CyQUANT assay assesses the cellular proliferation indirectly by directly determining the DNA content in a cell population using CyQUANT fluorescent dye. […] Therefore, it is suitable to asses DNA synthesis associated with cellular proliferation. Cells were plated in 96-well multi-titer plates (10,000 cells per well density) in quadruplicates and were incubated for 24 h with various concentrations of rac-19g, then assayed for cellular proliferation following the manufacturer’s protocol. Briefly, supernatants were gently removed and the plate was snap frozen and stored at −70 °C. Then plate was thawed, cells were lysed and incubated with CyQUANT dye. The excess of the dye was removed and fluorescence was measured at 490/520 nm (excitation/emission) using a FlexStation 3 (Molecular Devices) multimodal microplate reader.

[6] = system: acute myeloid leukemia cells; parameters: method as in PMID 31744877; settings: across 30 human cell lines; read-out: EC50, viability of acute myeloid leukemia cells; cited from earlier work
[7] = system: chemoresistant forms of prostate cancer; parameters: method as in PMID 23423838; settings: cited from earlier work
[8] = A2780, MTT dose-response fit, treated daily for 3 days, SI figures

SMILES | antiproliferative activity at 50 μM concentration (WM35 melanoma cell line) | antiproliferative activity at 50 μM concentration [1] | EC20 (logistic fit) (WM35 melanoma cell line) | EC80 (logistic fit) (WM35 melanoma cell line) | EC20 (logistic fit) ([2]; HaCaT) | EC80 (logistic fit) ([2]; HaCaT) | EC20 (logistic fit) [1, 8] | other results
Cc1nc2c(s1)-c1ccccc1OC2c1ccccc1 (racemic) [rac-3a, (±)-2-methyl-4-phenyl-4H-chromeno[3,4-d][1,3]thiazole] | much weaker activities | much weaker activities |  |  |  |  |  | 
CCOC(=O)c1c(C)[nH]c2c1-c1ccccc1OC2c1ccc(OC)cc1 (racemic) [rac-4b, (±)-ethyl 2-methyl-4-(4-methoxyphenyl)-3,4-dihydrochromeno[3,4-b]pyrrole-1-carboxylate] |  |  | 1,2746 µM | 26,63177 µM | 2.492 | 36.73 | 1,99005 mM | IC50 (WM35 melanoma cell line): 5.83 ± 1.78 µM; IC50 [2]: 9.57 ± 8.77 µM; IC50 [1]: 4840 ± 1380 nM
O=C(CCl)N[C@@H]1[C@@H](O)c2ccccc2O[C@H]1c1ccc2ccccc2c1 (racemic) [rac-19g, (±)-2-chloro-N-[(2R*,3S*,4R*)-4-Hydroxy-2-(naphthalen-2-yl)-3,4-dihydro-2H-chromen-3-yl]acetamide] |  |  | 1,26314 µM | 9,68285 µM |  |  | 0,01488 mM | IC50 (WM35 melanoma cell line; Homo sapiens, WM35, 72 h): 3.5 ± 1.94 µM; IC50 ([2]; Homo sapiens, HaCaT, 72 h): 6.06 ± 3.3 µM; integrity of the plasma membrane (SYTOX Green staining) [3]: intact (negative SYTOX Green staining); mitochondrial membrane potential [DilC1(5) staining] [4]: decreased the mitochondrial membrane potential; EC50 ([1]; Homo sapiens, 72 h, A2780, MTT dose-response fit, treated daily for 3 days, SI figures, read-out: EC50 (x0 of logistic fit) (converted)): 151 nM; IC50 ([1]; Homo sapiens, A2780, 72 h): 150 ± 140 nM; proliferation-associated DNA synthesis (CyQUANT Assay) [5]: inhibited proliferation-associated DNA synthesis
Cc1nc2c(s1)-c1ccccc1OC2c1ccc2ccccc2c1 (racemic) [rac-3g, (±)-2-methyl-4-(naphthalen-2-yl)-4H-chromeno[3,4-d][1,3]thiazole] | much weaker activities | much weaker activities |  |  |  |  |  | melting point: 129 to 130 °C
COc1ccc([C@@H]2Oc3ccccc3[C@@H]3OCCN[C@@H]23)cc1.Cl (racemic) [rac-(4aS*,5R*,10bR*)-2b, (±)-(4aR*,5S*,10bS*)-5-(4-methoxyphenyl)-2,3,4,4a,5,10b-hexahydrochromeno[4,3-b][1,4]oxazine hydrochloride] | the most active | the most active | 26,114 µM | 43,39258 µM | 7.569 | 38.76 | 6,72446 mM | IC50 [2]: 17.1 ± 7.95 µM; IC50 [1]: 10400 ± 2710 nM
CCCCCCCCCCCCCCCC(O)C(CO)NC(=O)CCl (stereo not shown) [SACLAC] |  |  |  |  |  |  |  | EC50 [6]: ~3000 nM; growth of chemoresistant forms of prostate cancer [7]: inhibit the growth
CCCCCCCCCCCCCCCC(O)C(CO)NC(=O)CBr (stereo not shown) [SABRAC] |  |  |  |  |  |  |  | EC50 [6]: ~3000 nM; growth of chemoresistant forms of prostate cancer [7]: inhibit the growth
COc1ccc(C2Oc3ccccc3-c3sc(C)nc32)cc1OC (racemic) [rac-3c, (±)-2-methyl-4-(3,4-dimethoxyphenyl)-4H-chromeno[3,4-d][1,3]thiazole] | much weaker activities | much weaker activities |  |  |  |  |  | 
COc1ccc(C2Oc3ccccc3-c3sc(C)nc32)cc1 (racemic) [rac-3b, (±)-2-methyl-4-(4-methoxyphenyl)-4H-chromeno[3,4-d][1,3]thiazole] | much weaker activities | much weaker activities |  |  |  |  |  | 
CCOC(=O)c1c(C)[nH]c2c1-c1ccccc1OC2c1ccc(OC)c(OC)c1 (racemic) [rac-4c, (±)-ethyl 2-methyl-4-(3,4-dimethoxyphenyl)-3,4-dihydrochromeno[3,4-b]pyrrole-1-carboxylate] |  |  | 1,55024 µM | 43,44318 µM | 0.9397 | 4.167 | 2,14809 mM | IC50 (WM35 melanoma cell line): 8.21 ± 4.38 µM; IC50 [2]: 1.97 ± 0.29 µM; IC50 [1]: 5340 ± 880 nM
COc1cc(C2Oc3ccccc3-c3sc(C)nc32)cc(OC)c1OC (racemic) [rac-3e, (±)-2-methyl-4-(3,4,5-trimethoxyphenyl)-4H-chromeno[3,4-d][1,3]thiazole] |  |  | 0,11527 µM | 39,68998 µM | 3.395 | 11.45 | 1,58958 mM | IC50 (WM35 melanoma cell line; Homo sapiens, WM35, 72 h): 2.14 ± 1.85 µM; IC50 ([2]; Homo sapiens, HaCaT, 72 h): 6.23 ± 1.25 µM; IC50 ([1]; Homo sapiens, A2780, 72 h): 2740 nM; IC50 [1]: 2720 ± 480 nM; melting point: 113 to 115 °C
CCOC(=O)c1c(C)[nH]c2c1-c1ccccc1OC2c1ccc2ccccc2c1 (racemic) [rac-4g, (±)-ethyl 2-methyl-4-(naphthalen-2-yl)-3,4-dihydrochromeno[3,4-b]pyrrole-1-carboxylate] |  |  |  |  |  |  |  | melting point: 149 to 151 °C
COc1cc(OC)cc([C@@H]2Oc3ccccc3[C@H]3OCCN[C@H]32)c1 (racemic) [rac-(4aS*,5R*,10bS*)-2d, (±)-(4aR*,5S*,10bR*)-5-(3,5-dimethoxyphenyl)-2,3,4,4a,5,10b-hexahydrochromeno[4,3-b][1,4]oxazine] | the most active | the most active | 14,15843 µM | 53,361 µM | 11.28 | 81.84 | 10,79361 mM | IC50 [2]: 30.4 ± 49.8 µM
COc1cccc2c1C(=O)c1c(O)c3c(c(O)c1C2=O)C[C@@](O)(C(=O)CO)C[C@@H]3O[C@H]1C[C@H](N)[C@H](O)[C@H](C)O1 [Doxorubicin, reference compound] |  |  |  |  |  |  |  | IC50 (WM35 melanoma cell line; Homo sapiens, WM35, 72 h): 0.14 µM; IC50 ([2]; Homo sapiens, HaCaT, 72 h): 0.03 µM; IC50 ([1]; Homo sapiens, A2780, 72 h): 70 nM
